From patent publication US8598132B2, “Glycosylated indolocarbazoles, method for obtaining same and uses thereof” (Universidad de Oviedo, priority 2008, dated 2013)

Biological target: T1, Ikkb (Homo sapiens, UniProt O14920)
T1 sequence (O14920 1-756): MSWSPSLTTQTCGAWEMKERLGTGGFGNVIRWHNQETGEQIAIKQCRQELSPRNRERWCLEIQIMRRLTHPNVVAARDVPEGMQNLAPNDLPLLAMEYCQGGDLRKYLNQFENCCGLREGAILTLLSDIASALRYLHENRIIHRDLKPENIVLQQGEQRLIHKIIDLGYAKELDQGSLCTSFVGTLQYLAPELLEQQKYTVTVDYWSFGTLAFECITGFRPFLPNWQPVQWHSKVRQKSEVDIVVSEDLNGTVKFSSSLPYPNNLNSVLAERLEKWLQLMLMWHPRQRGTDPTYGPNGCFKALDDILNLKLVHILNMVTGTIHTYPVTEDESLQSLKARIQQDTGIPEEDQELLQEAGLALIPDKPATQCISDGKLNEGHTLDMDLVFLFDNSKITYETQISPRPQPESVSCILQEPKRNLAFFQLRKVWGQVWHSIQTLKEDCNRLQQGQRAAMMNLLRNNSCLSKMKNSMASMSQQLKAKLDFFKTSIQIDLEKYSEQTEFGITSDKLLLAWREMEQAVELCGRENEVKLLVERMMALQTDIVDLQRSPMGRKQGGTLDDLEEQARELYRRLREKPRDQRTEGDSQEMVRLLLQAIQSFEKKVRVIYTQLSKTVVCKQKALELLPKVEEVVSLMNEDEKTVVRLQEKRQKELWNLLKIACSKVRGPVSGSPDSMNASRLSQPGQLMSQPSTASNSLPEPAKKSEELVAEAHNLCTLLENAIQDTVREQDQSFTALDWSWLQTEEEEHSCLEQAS
Experiment: LabChip (Caliper) kinase assay, Ikkb
Type: biochemical
Details: for inhibition at 0.01 µM: compound at 10 nM; for inhibition at 0.01 µM / inhibition at 0.1 µM: read-out: remaining kinase activity (in %) / percentage of inhibition; for inhibition at 0.1 µM: compound at 100 nM; for IC50: ATP at Km, read-out: CI50 (the source's name)
Experimental: The analysis of kinase activity described here was performed using LabChip (Caliper Life Sciences), specifically the Caliper LC3000 and the EZ Reader II instruments.
The kinase assay used measures the conversion of a fluorescent peptide (substrate) to a phosphorylated product. The reaction mixture, in a microplate well, is introduced by a capillary in a chip where the non-phosphorylated substrate and the phosphorylated product are separated by […]. The intensity of the fluorescent signal over time is related to the reaction progress. The phosphorylated product migrates quicker than the non-phosphorylated substrate and the signals of the two forms of the peptide appear as differentiated peaks. The Caliper determines the peak height and calculates the ratio of product to the peak sum (P/(P+S)). This value is used to compare wells with compounds and wells with controls and thus determine the % of inhibition for the given product.
The followings kinases were used for the enzymatic inhibition studies, between brackets the value of the Michaelis-Menten constant, Km, of the ATP (Adenosine triphosphate) for each kinase, in μM: obtained from Carna Biosciences: MAPKAPK2 (4.6), AurA (3.6), AurB (5), PKCζ (3.8), RSK1 (23.3), PRAK (5), Erk1 (33.4), PKD2 (32.1), CK1d (16.3), CHK1 (33), ABL (61.7), FYN (36), LYNa (17), CHK2 (57.8), MET (79.5), LCK (28.5), SRC (38), GSK3β (7.3), Erk2 (62.1), PKACα (1.7), AKT2 (186.1), INSR (871.8), p38a (396.5), AKT1(48), MSK1 (21.2), PKCβ2 (84.8), ROCK2 (3.3), PIM2 (4.9), AMPK (38.6), KDR (164.8), IRAK4 (196.5), SGK1 (121.8), SYK (33.5); obtained from Invitrogen: CDK2 (57.6), BTK (123), HGK (80); obtained from Upstate: MST2 (36.6), PKGα (16), PAK2 (1.9), IGF1R (320), FGFR1 (171), MARK1 (33), CAMK2δ (22.4), c-TAK1 (66), DYRK1a (18.1), CaMK4 (3.9), FLT3 (350), c-Raf (6.2), P70S6K (95).
The compounds were dissolved in 100% DMSO and were diluted at 25 times the final concentration desired for the assay. In the case of the determination of Cl50, serial dilutions were made to reach eight concentrations and give rise to the inhibition curve. 1 μL of each concentration is transferred, in duplicate to a 384-well microplate. 12 μL of enzymatic buffer is added to each well containing purified kinase (several suppliers as indicated above), 100 mM HEPES, pH 7.5, 1 mM DTT (Calbiochem), 0.002% Brij-35 (Sigma) and also in presence of 10 mM MgCl2 as cofactor, except for INSR and IRAK4 wherein 10 mM MnCl2 is used instead of MgCl2. For the kinases CAMK26 and CAMK4, 1 mM CaCl2 and 6.7 μg/mL of calmodulin are also added. For KDR kinase, 0.05% of the CHAPSO detergent is added. For the c-Raf kinase, 10 mM MnCl2 is added. For PKCβ2 0.02 μg/mL of PS/PMA is added. For PKGα se 10 μM of cGMP (cyclic guanosine monophosphate) is added. The compound and the enzyme are left for 15 minutes preincubation and, then, the following are added to each well: 12 μL of peptide buffer/ATP containing 100 mM HEPES, pH 7.5, 1.5 μM peptide marker with fluorescein (specific for the corresponding kinase), ATP (at concentration KM), and 0.002% Brij-35 to start the reaction. Generally, the reactions are incubated for 1-1.5 h at ambient temperature to obtain an adequate conversion (15-40%) of the peptide to the phosphorylated product. The reactions were ended by the addition of 45 μL of buffer containing 0 mM EDTA. The microplates were read by the LabChip 3000 using a 12-channel LabChip. The P/(P+S) values were obtained as described above and the CI50 curves were generated using XIfit.
Table 9a has the 0150 data obtained in pairs of compound-kinase selected from the compounds of formula (VII), (VIII), (IX), (XVI), (XVII) and (XVIII) after taking inhibition measurements at 100 nM and 10 nM. Those couples that provide >70% of inhibition at 10 nM were consider for measuring its IC50. […]

Row | SMILES | inhibition at 0.01 µM | inhibition at 0.1 µM | IC50
1 | C[C@@H]1O[C@@H](n2c3ccccc3c3c4c(c5c6ccccc6[nH]c5c32)CNC4=O)[C@H](O)[C@H](O)[C@H]1O [formula (XII), N^13-1′-β-L-rhamnosyl-k252c] | -5% | 12% | 
2 | C[C@@H]1O[C@@H](n2c3ccccc3c3c4c(c5c6ccccc6[nH]c5c32)C(=O)NC4=O)C[C@H](O)[C@H]1O [formula (IV), N^13-1′-β-L-olivosylarcyriaflavin] | 9% | 60% | 
3 | C[C@H]1O[C@@H](n2c3ccccc3c3c4c(c5c6ccccc6[nH]c5c32)C(=O)NC4=O)C[C@@H](O)[C@@H]1O [formula (VI), N^13-1′-β-D-olivosylarcyriaflavin] | 7% | 50% | 
4 | C[C@]12O[C@H](C[C@H](O)[C@H]1O)n1c3ccccc3c3c4c(c5c6ccccc6n2c5c31)C(=O)NC4=O [formula (VIII), N^12-5′(S)-N^13-1′-(R)-L-olivosylarcyriaflavin] |  |  | < 0.03 nM
5 | C[C@@H]1O[C@@H](n2c3ccccc3c3c4c(c5c6ccccc6[nH]c5c32)C(=O)NC4=O)C[C@@H](O)[C@H]1O [formula (V), N^13-1′-β-L-digitoxosylarcyriaflavin] | 37% | 76% | 
6 | C[C@]12O[C@H](C[C@@H](O)[C@H]1O)n1c3ccccc3c3c4c(c5c6ccccc6n2c5c31)CNC4=O [formula (XVIII), N^12-5′(S)-N^13-1′-(R)-L-digitoxosyl-k252c] |  |  | > 100 nM
7 | C[C@]12O[C@H]([C@H](O)[C@H](O)[C@H]1O)n1c3ccccc3c3c4c(c5c6ccccc6n2c5c31)C(=O)NC4=O [formula (VII), N^12-5′(S)-N^13-1′-(R)-L-rhamnosylarcyriaflavin] |  |  | 0.17 nM
8 | C[C@@H]1O[C@@H](n2c3ccccc3c3c4c(c5c6ccccc6[nH]c5c32)C(=O)NC4=O)[C@H](O)[C@H](O)[C@H]1O [formula (III), N^13-1′-β-L-rhamnosylarcyriaflavin] | -10% | 32% | 
9 | C[C@@H]1O[C@@H](n2c3ccccc3c3c4c(c5c6ccccc6[nH]c5c32)CNC4=O)C[C@@H](O)[C@H]1O [formula (XIV), N^13-1′-β-L-digitoxosyl-k252c] | 27% | 24% | 
10 | C[C@H]1O[C@@H](n2c3ccccc3c3c4c(c5c6ccccc6[nH]c5c32)CNC4=O)C[C@@H](O)[C@@H]1O [formula (XV), N^13-1′-β-D-olivosyl-k252c] | -5% | 16% | 
11 | C[C@@H]1O[C@@H](n2c3ccccc3c3c4c(c5c6ccccc6[nH]c5c32)CNC4=O)C[C@H](O)[C@H]1O [formula (XIII), N^13-1′-β-L-olivosyl-k252c] | -5% | 33% | 
12 | C[C@]12O[C@H](C[C@@H](O)[C@H]1O)n1c3ccccc3c3c4c(c5c6ccccc6n2c5c31)C(=O)NC4=O [formula (IX), N^12-5′(S)-N^13-1′-(R)-L-digitoxosylarcyriaflavin] |  |  | > 10 nM
